We go through one molecule from patent publication US12390470B2, “1-methylxanthine-based bioactive composition and method of use thereof” (Ingenious Ingredients, LP, priority 2021, dated 2025).

Data set [1] can be described thus: Organ weight (liver, heart), Example 3. It counts as in vivo. As to conditions: mice, 28 days. The method, then: (§1) Twenty-four 8-week-old male Swiss Albino mice were housed in an animal room at a constant temperature (22±3° C.) and humidity (30%-70%) under a 12:12 h light-dark cycle with standard laboratory diet (Purina 5L79, Rat and Mouse 18% protein; PMI Nutrition International, Brentwood, MO, USA). Distilled water was provided ad libitum. All animal experiments were reviewed and approved by the Institutional Animal Ethical Committee (IAEC) of Radiant Research Services Pvt. Ltd (Bangalore, India). All research was conducted in accordance with the guidelines of the committee for the purpose of control and supervision of experiments on animals.
After one week of acclimation, the animals were randomly divided by body weight into three groups (n=8 per group in each test) for oral treatment once a day, at approximately same time each day (±1 hour), for 28 consecutive days: (1) vehicle control or (2) 1-methylxanthine or (3) 1-methylxanthine plus paraxanthine. The dose administered to the mice was calculated using US Food and Drug Administration for human equivalence doses (HED), assuming a human weight of 60 kg. […] Food intake was monitored daily while water intake was ad libitum.

For a further data set, the system named is catalase. The experiment in a line: Catalase level in young and old rats. The format is in vivo. The method, then: as §1, with “young (6-8 Week) and twenty-four old (14-16 Months)” for “8-week-old male”, “Wistar rats” for “mice”
After one week of acclimation, the animals were randomly divided by body weight and age into six groups (n=8 per group in each test) for oral treatment once a day, at approximately same time each day (±1 hour), for 10 consecutive days: (1) vehicle control or (2) 1-methylxanthine or (3) 1-methylxanthine plus paraxanthine. The dose administered to the rat was calculated using US Food and Drug Administration for human equivalence doses (HED), assuming a human weight of 60 kg. […] Food intake was monitored daily while water intake was ad libitum. […] Body weight was recorded weekly. […]

As to `Cn1c(=O)[nH]c2nc[nH]c2c1=O` [1-methylxanthine, 1-Methyl-3H-purine-2,6-dione], in data set [1], the Heart weight is 188.50 ± 3.12 mg and the Liver weight turned out to be 1850.88 ± 39.96 mg. For the same molecule, the catalase levels with catalase (old rats) turned out to be 32.78±1.26 U/mL. Moreover, in the data set with catalase (young rats), the catalase levels came to 33.32±1.68 U/mL.
